The record followed here is article PMC2854649 (Biochemical and biophysical research communications, 2009).

Data set [1] concerns CD1 mice. It counts as in vivo, mouse. Conditions: for Percent Surviving: CD1 mice, survival recorded for 24 hrs.
Data set [2] relates to male C57Bl/6 mice. Kind of data set: Post-exposure treatment after lethal total body irradiation. Conditions: 1 mg dose, data not shown. The format is in vivo, mouse.
For data set [3], the system named is primary human lymphocytes (PBMCs). Kind of data set: Cellular uptake and subcellular distribution of FITC-labeled peptides. The format is cell-based. The note with it: 5 μM fluorescein-labeled peptide, 1 h, RPMI with 10% FBS or serum-free PBS.
Data set [4] relates to CD3+ human PBMCs. Briefly: Radiation-induced apoptosis. The format is cell-based. The note with it: CD3+ human PBMCs exposed to 20 Gy radiation, Figure 1.
Data set [5] deals with C57Bl/6J mice. It counts as in vivo, mouse. Conditions: 2 mg in 200 μL saline via tail-vein injection, N=6.

Like-named read-outs stand apart in the source and are kept apart here.

“(d) ^1-Ac-RKKRR-Orn-RRR-COOH [TAT, reference compound]”: the “Percent Surviving” value in data set [1] (2 mg i.p.) is 100%; in data set [1] (5 mg i.p.), 0%.
As for “Ac-KKKRKV-β-A-(l) ^1-SNRELVVDFLSYKLSQKGYS-COOH [NLS-BH4]”, the “Radiation-induced lymphocyte apoptosis in vivo (pilot study)” value in data set [2] is listed as “significantly attenuated radiation-induced lymphocyte apoptosis”. Also, the “Percent Surviving” value in data set [1] (2 mg i.p.), in data set [1] (10 mg i.p.) and in data set [1] (30 mg i.p.) was 100% in each case. In data set [1] (2, 5, or 0 mg i.p., N = 3 mice per group), the “Tolerability of i.p. injections” value was “without any apparent ill effects”. In data set [3], the “Uptake by PBMCs (fluorescence intensity, flow cytometry)” value is listed as “less dependent on the presence of serum”.
Turning to “(d) ^1-Ac-RKKRR-Orn-RRR-β-A-(l) ^1-SNRELVVDFLSDKLSQKGDS-COOH [TAT-BH4i]”, the “Effect on radiation-induced apoptosis, in words” value in data set [4] is on record as “Neither TAT-BH4i nor NLS-BH4i had any appreciable effect”.
Same read-out and setting: under “Ac-KKKRKV-β-A-(l) ^1-SNRELVVDFLSDKLSQKGDS-COOH [NLS-BH4i]” stands “Neither TAT-BH4i nor NLS-BH4i had any appreciable effect”.
Turning to “(d) ^1-Ac-RKKRR-Orn-RRR-β-A-(l) ^1-SNRELVVDFLSYKLSQKGYS-COOH [TAT-BH4]”, in data set [1] (2 mg i.p.), the “Appearance of mice the following day” value is given as “appeared normal”. The “Percent Surviving” value in data set [1] (2 mg i.p.) worked out at 100%; in data set [1] (5 mg i.p.), 75%; in data set [1] (20 mg i.p.), 25%. Besides, the “Appearance of surviving mice the following day” value in data set [1] (5 mg or 20 mg i.p., necropsy: distended and edematous bowel, small necrotic foci) was “piloerection and distended abdomens”. The “Time to death following injection” value in data set [5] lay within 3 to 5 min.
